From patent US20230286995A1, “METABOLICALLY STABLE PYRIMIDINYL DIHYDROQUINOXALINONES AS TUBULIN POLYMERIZATION INHIBITORS” (UNIVERSITY OF TENNESSEE RESEARCH FOUNDATION, priority 2022, published 2023)
Where two headings read alike, the source gives them in different places.

Legend:
RPMI-7951 = test: Cytotoxicity assay (MTS, 72 h); assay type: cell-based; conditions: Homo sapiens, Table 1, read-out: IC50 (nM) Melanoma RPMI-7951
MDA-MB-231 = test: Cytotoxicity assay (MTS, 72 h); assay type: cell-based; conditions: Homo sapiens
MDA-MB-453 = test: Cytotoxicity assay (MTS, 72 h); assay type: cell-based, human; conditions: Homo sapiens, MDA-MB-453
MDA-MB-468 = test: Cytotoxicity assay (MTS, 72 h); assay type: cell-based, human; conditions: Homo sapiens, MDA-MB-468; Table 1; read-out: IC50 (nM) Breast MDA-MB-468
logP = assay type: physicochemical; conditions: Table 1; method not described
A375 = test: Cytotoxicity assay (MTS, 72 h);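 further: compounds tested from 0.1 nM up to 3 µM in four replicate wells, with absorbance read at 490 nm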
M14 = test: Cytotoxicity assay (MTS, 72 h); conditions: Homo sapiens
Mia PaCa-2 = test: Cytotoxicity assay (MTS, 72 h); assay type: cell-based; conditions: Homo sapiens
PANC-1 = test: Cytotoxicity assay (MTS, 72 h); assay type: cell-based; conditions: Homo sapiens
Procedure: Mia PaCa-2 and PANC-1 cells were seeded in 96-well plates at 4000 and 5000 cells per well, respectively.
Cytotoxicity Assay. […] Each experiment consisted of four replicates.

[1] = MDA-MB-231, read-out: IC50 (nM) Breast MDA-MB-231, Table 1
[2] = Table 1, read-out: IC50 (nM) Breast MDA-MB-453
[3] = Homo sapiens, A-375, read-out: IC50 (nM) Melanoma A375, Table 1
[4] = M14, read-out: IC50 (nM) Melanoma M14
[5] = MDA-MB-231, read-out: IC50 (nM) Breast Cancer MDA-MB-231, Table 6
[6] = Table 6, read-out: IC50 (nM) Breast Cancer MDA-MB-453
[7] = Table 6, cells printed in μM, read-out: IC50 Pancreatic cancer Mia PaCa-2
[8] = Table 6, cells printed in μM, read-out: IC50 Pancreatic cancer PANC-1
[9] = Homo sapiens, A-375, read-out: IC50 (nM) Melanoma Cancer A375, Table 6
[10] = M14, read-out: IC50 (nM) Melanoma Cancer M14
[11] = Table 6, read-out: IC50 (nM) Pancreatic cancer Mia PaCa-2
[12] = Table 6, read-out: IC50 (nM) Pancreatic cancer PANC-1
[13] = read-out: IC50 (nM) Melanoma Cancer A375, Table 6
[14] = Homo sapiens, A-375, read-out: IC50 Melanoma Cancer A375, Table 6, cells printed in μM
[15] = MDA-MB-231, read-out: IC50 Breast Cancer MDA-MB-231, Table 6, cells printed in μM
[16] = Table 6, cells printed in μM, read-out: IC50 Breast Cancer MDA-MB-453
[17] = M14, read-out: IC50 Melanoma Cancer M14

SMILES	IC50 (MDA-MB-231; [5]) [nM]	IC50 (MDA-MB-453; [6]) [nM]	IC50 (Mia PaCa-2; [7]) [µM]	IC50 (PANC-1; [8]) [µM]	IC50 (A375; [9]) [nM]	IC50 (M14; [10]) [nM]	further results
COc1cc2c(cc1F)N(c1nc(Cl)nc3cccnc13)CC(=O)N2 [Compound 5i, 4-(2-chloropyrido[3,2-d]pyrimidin-4-yl)-6-fluoro-7-methoxy-3,4-dihydroquinoxalin-2(1H)-one]							IC50 (RPMI-7951): > 1000 nM; IC50 (MDA-MB-231; [1]): > 1000 nM; IC50 (MDA-MB-453; [2]): 693 ± 102 nM; IC50 (MDA-MB-468): 940 ± 300 nM; logP (logP): 2.23; IC50 (A375; [3]): > 1000 nM; IC50 (M14; [4]): > 1000 nM
COc1ccc2c(c1)NC(=O)CN2c1nc(Cl)nc2ccoc12 [Compound 5j, 4-(2-chlorofuro[3,2-d]pyrimidin-4-yl)-7-methoxy-3,4-dihydroquinoxalin-2(1H)-one]							IC50 (RPMI-7951): 14.8 ± 3.7 nM; IC50 (MDA-MB-231; [1]): 5.4 ± 0.6 nM; IC50 (MDA-MB-453; [2]): 1.4 ± 0.3 nM; IC50 (MDA-MB-468): 6.4 ± 1.3 nM; logP (logP): 1.6; IC50 (A375; [3]): 11.9 ± 3.2 nM; IC50 (M14; [4]): 5.6 ± 1.2 nM
COc1ccc2c(c1)NC(=O)CN2c1nc(C)nc2onc(C)c12 [Compound 5k, 4-(3,6-dimethylisoxazolo[5,4-d]pyrimidin-4-yl)-7-methoxy-3,4-dihydroquinoxalin-2(1H)-one]							IC50 (RPMI-7951): 7 ± 2.3 nM; IC50 (MDA-MB-231; [1]): 9.3 ± 1.6 nM; IC50 (MDA-MB-453; [2]): 4.6 ± 1.1 nM; IC50 (MDA-MB-468): 7.5 ± 1.6 nM; logP (logP): 2.46; IC50 (A375; [3]): 14.3 ± 4.1 nM; IC50 (M14; [4]): 6.7 ± 2.2 nM
COc1ccc2c(c1)NC(=O)CN2c1nc(S(C)(=O)=O)nc2c1CCC2 [Compound 11, 7-methoxy-4-(2-(methylsulfonyl)-6,7-dihydro-5H-cyclopenta[d]pyrimidin-4-yl)-3,4-dihydroquinoxalin-2(1H) one]	191 ± 32	58.8 ± 16.3	> 1.25	> 1.25	~84.9	62.2 ± 10.8	
COc1ccc2c(c1)NC(=O)CN2c1nc(O)nc2c1CCC2 [Compound 12a, 4-(2-hydroxy-6,7-dihydro-5H-cyclopenta[d]pyrimidin-4-yl)-7-methoxy-3,4-dihydroquinoxalin-2(1H)-one]	1200 ± 346	688 ± 186	> 1.25	> 1.25	~646	662 ± 126	
COc1ccc2c(c1)NC(=O)CN2c1nc(N2CCN(C)CC2)nc2c1CCC2 [Compound 12d, 7-methoxy-4-(2-(4-methylpiperazin-1-yl)-6,7-dihydro-5H-cyclopenta[d]pyrimidin-4-yl)-3,4-dihydroquinoxalin-2(1H)-one]	1860 ± 650	416 ± 107	> 1.25	> 1.25	~543	574 ± 124	
COc1ccc2c(c1)NC(=O)CN2c1nc(N2CCCCC2)nc2c1CCC2 [Compound 12f, 7-methoxy-4-(2-(piperidin-1-yl)-6,7-dihydro-5H-cyclopenta[d]pyrimidin-4-yl)-3,4-dihydroquinoxalin-2(1H)-one]	690 ± 147	499 ± 126	> 1.25	> 1.25	~436	601 ± 117	
COc1ccc2c(c1)NC(=O)CN2c1nc(N2CCCC2)nc2c1CCC2 [Compound 12g, 7-methoxy-4-(2-(pyrrolidin-1-yl)-6,7-dihydro-5H-cyclopenta[d]pyrimidin-4-yl)-3,4-dihydroquinoxalin-2(1H)-one]	119 ± 20.5	98.1 ± 23.3			~82.1	84.7 ± 17.6	IC50 (Mia PaCa-2; [11]): 0.508 ± 0.0591 µM; IC50 (PANC-1; [12]): 0.213 ± 0.0476 µM; IC50 (A375; [13]): 82.2 ± 12.9 nM
COc1ccc2c(c1)NC(=O)CN2c1nc(N(C)C)nc2c1CCC2 [Compound 12i, 4-(2-(dimethylamino)-6,7-dihydro-5H-cyclopenta[d]pyrimidin-4-yl)-7-methoxy-3,4-dihydroquinoxalin-2(1H)-one]	36.9 ± 6.1	16.1 ± 4.7	> 1.25	> 1.25	~22.6	21.1 ± 4.1	IC50 (A375; [13]): 22 ± 4.5 nM
Cc1nc2c(c(N3CC(=O)Nc4cc(OC(F)(F)F)ccc43)n1)CCC2 [Compound 12o, 4-(2-methyl-6,7-dihydro-5H-cyclopenta[d]pyrimidin-4-yl)-7-(trifluoromethoxy)-3,4-dihydroquinoxalin-2(1H)-one]	75.8 ± 13.1	34.9 ± 6.4			~43.1	41.9 ± 5.6	IC50 (Mia PaCa-2; [11]): 0.0835 ± 0.0128 µM; IC50 (PANC-1; [12]): 0.0424 ± 0.0085 µM
Cc1nc2c(c(N3CC(=O)Nc4cc(O)ccc43)n1)CCC2 [Compound 12q, 7-hydroxy-4-(2-methyl-6,7-dihydro-5H-cyclopenta[d]pyrimidin-4-yl)-3,4-dihydroquinoxalin-2(1H)-one]	25.9 ± 4.9	13.5 ± 3.3			~19	21.8 ± 4.5	IC50 (Mia PaCa-2; [11]): 0.0343 ± 0.0053 µM
COc1ccc2c(c1)[nH]c(=O)c(=O)n2-c1nc(SC)nc2c1CCC2 [Compound 14, 6-methoxy-1-(2-(methylthio)-6,7-dihydro-5H-cyclopenta[d]pyrimidin-4-yl)quinoxaline-2,3(1H,4H)-dione]							IC50 (A375; [14]): > 3000 nM
COc1ccc2c(c1)[nH]c(=O)c(=O)n2-c1nc(S(C)(=O)=O)nc2c1CCC2 [Compound 15, 6-methoxy-1-(2-(methylsulfone)-6,7-dihydro-5H-cyclopenta[d]pyrimidin-4-yl)quinoxaline-2,3(1H,4H)-dione]							IC50 (MDA-MB-231; [15]): > 3000 nM; IC50 (MDA-MB-453; [16]): > 3000 nM; IC50 (A375; [14]): > 3000 nM; IC50 (M14; [17]): > 3000 nM
COc1ccc2c(c1)[nH]c(=O)c(=O)n2-c1nc(OC)nc2c1CCC2 [Compound 16, 6-methoxy-1-(2-methoxy-6,7-dihydro-5H-cyclopenta[d]pyrimidin-4-yl)quinoxaline-2,3(1H,4H)-dione]			> 1.25	> 1.25			IC50 (MDA-MB-231; [15]): > 3000 nM; IC50 (MDA-MB-453; [16]): > 3000 nM; IC50 (A375; [14]): > 3000 nM; IC50 (M14; [17]): > 3000 nM
COc1ccc2c(c1)[nH]c(=O)n2-c1nc(SC)nc2c1CCC2 [Compound 18, 5-methoxy-1-(2-(methylthio)-6,7-dihydro-5H-cyclopenta[d]pyrimidin-4-yl)-1H-benzo[d]imidazol-2(3H)-one]	1340 ± 409	2180 ± 861	> 1.25	> 1.25	1180 ± 339	1110 ± 306	
Cc1nc2c(c(-n3c(=O)[nH]c4cc(OC(F)(F)F)ccc43)n1)CCC2 [Compound 18a, 1-(2-methyl-6,7-dihydro-5H-cyclopenta[d]pyrimidin-4-yl)-5-(trifluoromethoxy)-1H-benzo[d]imidazol-2-one]	919 ± 722				238 ± 126	1080 ± 682	IC50 (Mia PaCa-2; [11]): 0.667 ± 0.652 µM; IC50 (PANC-1; [12]): 0.164 ± 0.0982 µM
COc1ccc2c(c1)nc(-c1ccc(OC)c(OC)c1OC)n2-c1nc(SC)nc2c1CCC2 [Compound 19, 5-methoxy-1-(2-(methylthio)-6,7-dihydro-5H-cyclopenta[d]pyrimidin-4-yl)-2-(2,3,4-trimethoxyphenyl)-1H-benzo[d]imidazole]				> 1.25			IC50 (MDA-MB-231; [15]): > 3000 nM; IC50 (MDA-MB-453; [16]): > 3000 nM; IC50 (Mia PaCa-2; Table 6, cell printed in MM, read-out: IC50 Pancreatic cancer Mia PaCa-2): > 1.25 µM; IC50 (A375; [14]): > 3000 nM; IC50 (M14; [17]): > 3000 nM
